Source: PMC11876601 (Molecular Systems Biology, 2025)
Values joined by “and” are separate entries in the source; they are usually repeats but may differ in a detail not shown here. Equal entries are not always repeated. Where two headings read alike, the source gives them in different places.

Columns and labels:
[1] = test system: AsPC-1 cells; assay: Cell proliferation assay, chemodrug + ATR inhibitor (Incucyte confluence, 72 h); details: for Curve slope / Curve bottom / Curve top: fitted dose-response curve; for Curve bottom / Curve top: relative response; for EC50: Homo sapiens;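 as to all read-outs here: underlying read-out for every value is AsPC-1 confluence after 72 h incubation at 37 °C and 5% CO2, divided by that well's starting confluence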
Protocol: (§1) Cells were seeded at 5000 cells/well into 96-well flat bottom plates (Eppendorf) and allowed to attach overnight. […] Cells were incubated for 72 h at 37 °C and 5% CO2. Cell confluence readouts at 72 h were either normalized to their initial confluence using the Incucyte software (AsPC-1) or used without prior normalization (all others). […] Each experiment was performed in triplicates, the data was plotted as mean ± standard deviation (s.d.).

[2] = test system: PANC-1 cells; assay: Cell proliferation assay, GEM + ATR inhibitor (Incucyte confluence, 72 h); details: for EC50: Homo sapiens, mean of replicates; for Curve top: PANC-1, plateau of fitted curve, ratio drug/vehicle confluence;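 as to EC50: in combination experiments GEM is titrated while ATRi is held at a fixed sub-EC50 dose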;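 as to all read-outs here: PANC-1 confluence at 72 h taken as raw values, not normalized to starting confluence, with each experiment run in triplicate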
Protocol: as §1

[3] = AsPC1, Experiment ATRi (ATR inhibitor alone)
[4] = AsPC1, Experiment GEM+ATRi_dose1
[5] = AsPC1, Experiment GEM+ATRi_dose2
[6] = AsPC1, Experiment GEM+ATRi_dose3

- EC50 ([1]; ASPC1, 72 h, AsPC1, Experiment ATRi (ATR inhibitor alone), single replicates R1-R3): 1810 nM
- EC50 ([1]; ASPC1, 72 h, read-out: EC50 (cell growth), ATR inhibitor as single agent): 1720 nM
- EC50 ([1]; ASPC1, 72 h, read-out: EC50 mean [nM], AsPC1, Experiment ATRi (ATR inhibitor alone), mean of replicates): 1720 nM
- EC50 ([1]; ASPC1, 72 h, read-out: pEC50, AsPC1 (converted), Experiment ATRi (ATR inhibitor alone), single replicates R1-R3): 1820 nM
- EC50 ([1]; ASPC1, read-out: EC50 mean [nM], AsPC1, Experiment ATRi (ATR inhibitor alone), mean of replicates): 1720 nM
- EC50 ([2]; PANC-1, 72 h, read-out: EC50 mean [nM], PANC-1, experiment ATRi (ATR inhibitor alone)): 10500 nM
- EC50 ([2]; PANC-1, read-out: EC50 mean [nM], PANC-1, experiment ATRi (ATR inhibitor alone)): 10500 nM
- EC50 ([2]; PANC-1, read-out: EC50 mean [nM], PANC-1, experiment GEM+ATRi_dose1): 12 nM
- EC50 ([2]; PANC-1, read-out: EC50 mean [nM], PANC-1, experiment GEM+ATRi_dose2): 22 nM
- EC50 ([2]; PANC-1, read-out: EC50 mean [nM], PANC-1, experiment GEM+ATRi_dose3): 14.5 nM
Structure (SMILES): C[C@@H]1COCCN1c1cc(C2([S@](C)(=N)=O)CC2)nc(-c2cc[nH]c3nccc2-3)n1 [Ceralasertib]
- Curve slope [1, 3]: 2.93 and 3.34 and 3.10
- Curve bottom [1, 3]: 1.16 and 0.93 and 0.99
- Curve top [1, 3]: 0.45 and 0.34 and 0.35
- Curve slope [1, 4]: 1.26 and 1.52 and 1.58
- Curve bottom [1, 4]: 1.03 and 0.96 and 0.97
- Curve top [1, 4]: 0.53 and 0.41 and 0.45
- Curve bottom [1, 5]: 1.06 and 0.94 and 0.90
- Curve top [1, 5]: 0.50 and 0.38 and 0.42
- Curve slope [1, 6]: 1.68 and 1.97
- Curve bottom [1, 6]: 0.98
- Curve top [1, 6]: 0.46 and 0.35 and 0.39
- Raw data (confluence at 72 h/confluence at 0 h) ([1]; Ceralasertib experiment, replicate R1, titrated drug dose 3 nM): 3.36
- Raw data (confluence at 72 h/confluence at 0 h) ([1]; Ceralasertib experiment, replicate R1, titrated drug dose 10 nM): 3.44
- Raw data (confluence at 72 h/confluence at 0 h) ([1]; Ceralasertib experiment, replicate R1, titrated drug dose 30 nM): 3.6
- Raw data (confluence at 72 h/confluence at 0 h) ([1]; Ceralasertib experiment, replicate R1, titrated drug dose 100 nM): 3.35
- Raw data (confluence at 72 h/confluence at 0 h) ([1]; Ceralasertib experiment, replicate R1, titrated drug dose 300 nM): 3.69
- Raw data (confluence at 72 h/confluence at 0 h) ([1]; Ceralasertib experiment, replicate R1, titrated drug dose 1000 nM): 3.19
- Raw data (confluence at 72 h/confluence at 0 h) ([1]; Ceralasertib experiment, replicate R1, titrated drug dose 3000 nM): 1.77
- Raw data (confluence at 72 h/confluence at 0 h) ([1]; Ceralasertib experiment, replicate R1, titrated drug dose 10000 nM): 1.38
- Raw data (confluence at 72 h/confluence at 0 h) ([1]; Ceralasertib experiment, replicate R2, titrated drug dose 3 nM): 3.66
- Raw data (confluence at 72 h/confluence at 0 h) ([1]; Ceralasertib experiment, replicate R2, titrated drug dose 10 nM): 3.73
- Raw data (confluence at 72 h/confluence at 0 h) ([1]; Ceralasertib experiment, replicate R2, titrated drug dose 30 nM): 3.9
- Raw data (confluence at 72 h/confluence at 0 h) ([1]; Ceralasertib experiment, replicate R2, titrated drug dose 100 nM): 2.91
- Raw data (confluence at 72 h/confluence at 0 h) ([1]; Ceralasertib experiment, replicate R2, titrated drug dose 300 nM): 3.91
- Raw data (confluence at 72 h/confluence at 0 h) ([1]; Ceralasertib experiment, replicate R2, titrated drug dose 1000 nM): 3.25
- Raw data (confluence at 72 h/confluence at 0 h) ([1]; Ceralasertib experiment, replicate R2, titrated drug dose 3000 nM): 1.61
- Response ([1]; GEM 0 nM, ATRi 100 nM): 3.13
- Response ([1]; GEM 0 nM, ATRi 300 nM): 3.19
- Response ([1]; GEM 0 nM, ATRi 1000 nM): 3.06
- Response ([1]; GEM 1 nM + ATRi 100 nM): 3.00
- Response ([1]; GEM 1 nM + ATRi 300 nM): 3.18
- Response ([1]; GEM 1 nM + ATRi 1000 nM): 2.76
- Response ([1]; GEM 3 nM + ATRi 100 nM): 3.15
- Response ([1]; GEM 3 nM + ATRi 300 nM): 3.26
- Response ([1]; GEM 3 nM + ATRi 1000 nM): 2.99
- Response ([1]; GEM 10 nM + ATRi 100 nM): 2.74
- Response ([1]; GEM 10 nM + ATRi 300 nM): 3.12
- Response ([1]; GEM 10 nM + ATRi 1000 nM): 2.13
- Response ([1]; GEM 30 nM + ATRi 100 nM): 2.24
- Response ([1]; GEM 30 nM + ATRi 300 nM): 2.10
- Response ([1]; GEM 100 nM + ATRi 100 nM): 1.89
- Response ([1]; GEM 100 nM + ATRi 1000 nM): 1.42
- Response ([1]; GEM 300 nM + ATRi 100 nM): 1.67
- Response ([1]; GEM 300 nM + ATRi 300 nM): 1.55
- Response ([1]; GEM 1000 nM + ATRi 100 nM): 1.60
- Response ([1]; GEM 1000 nM + ATRi 300 nM): 1.47
- Response ([1]; GEM 3000 nM + ATRi 100 nM): 1.61
- Response ([1]; GEM 3000 nM + ATRi 300 nM): 1.44
- Response ([1]; experiment ATRi, GEM 0 nM, ATRi 100 nM, AsPC1, replicates R2, R3): 1.95
- Response ([1]; experiment GEM+ATRi_dose1, GEM 0 nM, ATRi 100 nM, AsPC1, replicates R2, R3): 3.76 and 3.38
- Response ([1]; experiment GEM+ATRi_dose1, GEM 1 nM, ATRi 100 nM, AsPC1, replicates R2, R3): 3.75 and 3.44
- Response ([1]; experiment GEM+ATRi_dose1, GEM 3 nM, ATRi 100 nM, AsPC1, replicates R2, R3): 3.76 and 3.47
- Response ([1]; experiment GEM+ATRi_dose1, GEM 10 nM, ATRi 100 nM, AsPC1, replicates R2, R3): 3.43
- Response ([1]; experiment GEM+ATRi_dose1, GEM 30 nM, ATRi 100 nM, AsPC1, replicates R2, R3): 2.86 and 2.80
- Response ([1]; experiment GEM+ATRi_dose1, GEM 100 nM, ATRi 100 nM, AsPC1, replicates R2, R3): 1.90 and 2.07
- Response ([1]; experiment GEM+ATRi_dose1, GEM 300 nM, ATRi 100 nM, AsPC1, replicates R2, R3): 1.72 and 1.75
- Response ([1]; experiment GEM+ATRi_dose1, GEM 1000 nM, ATRi 100 nM, AsPC1, replicates R2, R3): 1.62 and 1.67
- Response ([1]; experiment GEM+ATRi_dose1, GEM 3000 nM, ATRi 100 nM, AsPC1, replicates R2, R3): 1.55 and 1.53
- Response ([1]; experiment GEM+ATRi_dose2, GEM 0 nM, ATRi 300 nM, AsPC1, replicates R2, R3): 3.86 and 3.56
- Response ([1]; experiment GEM+ATRi_dose2, GEM 1 nM, ATRi 300 nM, AsPC1, replicates R2, R3): 3.53 and 2.33
- Response ([1]; experiment GEM+ATRi_dose2, GEM 3 nM, ATRi 300 nM, AsPC1, replicates R2, R3): 3.61 and 3.55
- Response ([1]; experiment GEM+ATRi_dose2, GEM 10 nM, ATRi 300 nM, AsPC1, replicates R2, R3): 3.45 and 3.38
- Response ([1]; experiment GEM+ATRi_dose2, GEM 30 nM, ATRi 300 nM, AsPC1, replicates R2, R3): 2.30
- Response ([1]; experiment GEM+ATRi_dose2, GEM 100 nM, ATRi 300 nM, AsPC1, replicates R2, R3): 1.61
- Response ([1]; experiment GEM+ATRi_dose2, GEM 300 nM, ATRi 300 nM, AsPC1, replicates R2, R3): 1.48 and 1.53
- Response ([1]; experiment GEM+ATRi_dose2, GEM 1000 nM, ATRi 300 nM, AsPC1, replicates R2, R3): 1.52 and 1.48
- Response ([1]; experiment GEM+ATRi_dose2, GEM 3000 nM, ATRi 300 nM, AsPC1, replicates R2, R3): 1.45
- Response ([1]; experiment GEM+ATRi_dose3, GEM 0 nM, ATRi 1000 nM, AsPC1, replicates R2, R3): 3.10 and 2.81
- Response ([1]; experiment GEM+ATRi_dose3, GEM 1 nM, ATRi 1000 nM, AsPC1, replicates R2, R3): 3.14 and 2.98
- Response ([1]; experiment GEM+ATRi_dose3, GEM 3 nM, ATRi 1000 nM, AsPC1, replicates R2, R3): 2.92
- Response ([1]; experiment GEM+ATRi_dose3, GEM 10 nM, ATRi 1000 nM, AsPC1, replicates R2, R3): 2.52 and 2.34
- Response ([1]; experiment GEM+ATRi_dose3, GEM 30 nM, ATRi 1000 nM, AsPC1, replicates R2, R3): 1.76 and 1.67
- Response ([1]; experiment GEM+ATRi_dose3, GEM 100 nM, ATRi 1000 nM, AsPC1, replicates R2, R3): 1.44
- Response ([1]; experiment GEM+ATRi_dose3, GEM 1000 nM, ATRi 1000 nM, AsPC1, replicates R2, R3): 1.42
- Raw data (confluence at 72 h/confluence at 0 h) ([1]; titrated drug dose 3 nM, replicate R3, experiment (ATRi) Ceralasertib, AsPC-1, 72 h): 3.28
- Raw data (confluence at 72 h/confluence at 0 h) ([1]; titrated drug dose 10 nM, replicate R3, experiment (ATRi) Ceralasertib, AsPC-1, 72 h): 3.61
- Raw data (confluence at 72 h/confluence at 0 h) ([1]; titrated drug dose 30 nM, replicate R3, experiment (ATRi) Ceralasertib, AsPC-1, 72 h): 3.58
- Raw data (confluence at 72 h/confluence at 0 h) ([1]; titrated drug dose 300 nM, replicate R3, experiment (ATRi) Ceralasertib, AsPC-1, 72 h): 3.61
- Raw data (confluence at 72 h/confluence at 0 h) ([1]; titrated drug dose 1000 nM, replicate R3, experiment (ATRi) Ceralasertib, AsPC-1, 72 h): 3.17
- Raw data (confluence at 72 h/confluence at 0 h) ([1]; titrated drug dose 3000 nM, replicate R3, experiment (ATRi) Ceralasertib, AsPC-1, 72 h): 1.6
- Raw data (confluence at 72 h/confluence at 0 h) ([1]; titrated drug dose 10000 nM, replicate R3, experiment (ATRi) Ceralasertib, AsPC-1, 72 h): 1.25
- Curve top ([2]; experiment GEM+ATRi_dose1): 0.75 and 0.55 and 0.69
- Curve top ([2]; experiment GEM+ATRi_dose2): 0.69 and 0.59 and 0.62
- Curve top ([2]; experiment GEM+ATRi_dose3): 0.55 and 0.43 and 0.50
